Source: ChEMBL document CHEMBL5442219

What follows are compounds tested against T1, D(4) dopamine receptor (Homo sapiens) (UniProt P21917). Settings: Compound concentration 10 µM.
T1 sequence (whole entry): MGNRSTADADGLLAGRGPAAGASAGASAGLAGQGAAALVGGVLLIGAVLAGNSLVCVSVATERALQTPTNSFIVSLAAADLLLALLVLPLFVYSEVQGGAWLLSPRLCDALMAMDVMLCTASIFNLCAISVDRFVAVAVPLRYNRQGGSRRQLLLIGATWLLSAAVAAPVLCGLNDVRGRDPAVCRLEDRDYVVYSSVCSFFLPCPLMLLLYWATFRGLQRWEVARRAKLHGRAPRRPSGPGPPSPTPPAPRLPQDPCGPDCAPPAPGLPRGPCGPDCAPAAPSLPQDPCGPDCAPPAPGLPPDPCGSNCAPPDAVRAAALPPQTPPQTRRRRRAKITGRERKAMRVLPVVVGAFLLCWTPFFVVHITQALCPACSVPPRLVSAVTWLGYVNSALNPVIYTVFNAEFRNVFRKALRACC
Description: PDSP Primary Binding target: DRD4 - Compounds are tested at 10 uM concentration, plate are incubated at room temperature in the dark for 90 minutes. Reaction are stopped by vacuum filtration onto 0.3% polyethyleneimine soaked filter mats using Filtermate harvester. Scintilation cocktail is then melted onto microwave-dried filters on a hot plate and the radio activity is counted in Microbia counter.

**Q.** `CC(C)NCC(O)c1ccc(N)c(C#N)c1` (configuration not stated) was tested. Which inhibition did it give?
**A.** Its inhibition is -4.2%.

**Q.** For `COc1ccc(S(=O)(=O)N2c3ccc(Cl)cc3[C@](O)(c3ccccc3Cl)[C@@H]2C(=O)N2CCC[C@H]2C(N)=O)cc1OC`, which inhibition is on record?
**A.** Its inhibition is -3.97%.

**Q.** `CCCCCNC(=N)N/N=C/c1c[nH]c2ccc(OC)cc12` was tested. Which inhibition did it give?
**A.** The inhibition was 87.3%.

**Q.** With `COc1ccc(NS(=O)(=O)c2sc3ccc(Cl)cc3c2C)cc1N1CCNCC1` as the compound, how does the inhibition read?
**A.** Its inhibition is 0.64%.

**Q.** Which inhibition does the source give for `CC(C)NCC(O)COc1cccc2ccccc12` (configuration not stated) here?
**A.** Its inhibition is 13.2%.

**Q.** With `CN1C(=O)[C@@H](NC(=O)c2cc3ccccc3[nH]2)N=C(c2ccccc2)c2ccccc21` as the compound, how does the inhibition read?
**A.** Its inhibition is -8.65%.

**Q.** With `CN1CC(=O)N=C1NC(=O)Nc1cccc(Cl)c1` as the compound, how does the inhibition read?
**A.** Its inhibition is 27.2%.

**Q.** How did the inhibition turn out when `C[C@H](NC[C@H](O)CP(=O)(O)CC1CCCCC1)c1ccc(Cl)c(Cl)c1` was run?
**A.** The inhibition was 13.4%.

**Q.** Which inhibition does the source give for `CCCCc1nc(Cl)c(CO)n1Cc1ccc(-c2ccccc2-c2nnn[nH]2)cc1` here?
**A.** Its inhibition is 37%.

**Q.** Which inhibition does the source give for `S=C(NCCCc1c[nH]cn1)NCCCN(Cc1ccc(Cl)c(Cl)c1)c1ccc(Br)cn1` here?
**A.** The inhibition was 40.9%.

**Q.** For `CCc1ccc(OCc2ccccc2C(=O)Nc2ccc3nc(C)cc(N)c3c2)cc1`, which inhibition is on record?
**A.** Its inhibition is 21.3%.

**Q.** For `N#Cc1c(N)nc(SCC(N)=O)c(C#N)c1-c1ccc(OCC2CC2)cc1`, which inhibition is on record?
**A.** Its inhibition is 8.04%.

**Q.** Which inhibition does the source give for `O=C(Cc1ccccc1)Nc1nc2ccc(Cl)cc2c2nc(-c3ccco3)nn12` here?
**A.** Its inhibition is 33.2%.

**Q.** With `OC1(c2ccc(Cl)cc2)CCN(Cc2c[nH]c3ccccc23)CC1` as the compound, how does the inhibition read?
**A.** Its inhibition is 66.1%.

**Q.** Which inhibition does the source give for `O=C(Cc1ccc(Cl)c(Cl)c1)N1CCCC[C@H]1CN1CCCC1` here?
**A.** Its inhibition is 79.7%.

**Q.** Which inhibition does the source give for `COc1cccc([C@H](O)C2CCN(CCc3ccc(F)cc3)CC2)c1OC` here?
**A.** Its inhibition is 43.9%.

**Q.** How did the inhibition turn out when `N#Cc1cccc(C(=O)Nc2cc(-c3ccccc3)nn2-c2ccccc2)c1` was run?
**A.** Its inhibition is 4.16%.

**Q.** For `CSc1ccc(C(=O)N[C@@H]2CCCC[C@@H]2NC(=O)CNC(=O)c2cc(C(F)(F)F)ccc2NC(=O)NC(C)C)cc1`, which inhibition is on record?
**A.** Its inhibition is 3.27%.

**Q.** How did the inhibition turn out when `CCOC(=O)c1c(C)[nH]c2ccc3c(c12)CN1CCc2cc(OC)ccc2C1O3` (configuration not stated) was run?
**A.** Its inhibition is -5.53%.

**Q.** Which inhibition does the source give for `CC(C)(C)NC[C@H](O)COc1nsnc1N1CCOCC1` here?
**A.** Its inhibition is 15.6%.

**Q.** With `COc1ccc(C2(O)OC(=O)C(c3ccc4c(c3)OCO4)=C2Cc2cc(OC)c(OC)c(OC)c2)cc1` (configuration not stated) as the compound, how does the inhibition read?
**A.** The inhibition was 7.04%.

**Q.** For `C/C(=N\NC(=O)[C@@H]1C(=O)NC[C@H]1c1ccccc1)c1cccc(Br)c1`, which inhibition is on record?
**A.** Its inhibition is 2.24%.

**Q.** For `CCCCC#Cc1nc(NC)c2ncn([C@@H]3O[C@H](CO)[C@@H](O)[C@H]3O)c2n1`, which inhibition is on record?
**A.** The inhibition was -8.18%.

**Q.** With `COc1ccc(S(=O)(=O)c2cc(OC)ccc2S(=O)(=O)c2ccc([C@H](C)NS(C)(=O)=O)cc2)cc1` as the compound, how does the inhibition read?
**A.** The inhibition was 58.7%.

**Q.** For `Cc1nc(C(=O)N2CCC[C@H]2Cc2nnc(-c3ccccc3)o2)c(-c2ccccc2F)s1`, which inhibition is on record?
**A.** The inhibition was -5.22%.

**Q.** For `CN1C2CCC1CC(OC(c1ccc(F)cc1)c1ccc(F)cc1)C2` (configuration not stated), which inhibition is on record?
**A.** The inhibition was 21%.

**Q.** How did the inhibition turn out when `CC[C@@H]1CN2C(=O)N(C)c3nc(-c4ccccc4)[nH]c3C2=N1` was run?
**A.** Its inhibition is 10.4%.

**Q.** With `COc1ccc(Br)cc1S(=O)(=O)NC(=O)/C=C/c1ccccc1Cc1ccc2ccccc2c1` as the compound, how does the inhibition read?
**A.** Its inhibition is 33.8%.

**Q.** For `COC(=O)C1=C(C)NC(C)=C(C(=O)OCCCN2CCC(c3ccccc3)(c3ccccc3)CC2)[C@H]1c1cccc([N+](=O)[O-])c1`, which inhibition is on record?
**A.** Its inhibition is 41.5%.

**Q.** `COc1cc(-n2cnc3cc(-c4ccc(Cl)cc4)sc3c2=O)ccc1OCCN1CCCC1` was tested. Which inhibition did it give?
**A.** Its inhibition is 32.4%.

**Q.** With `Clc1cccc(COc2cncc(N3CCNCC3)n2)c1` as the compound, how does the inhibition read?
**A.** The inhibition was 42.2%.

**Q.** How did the inhibition turn out when `O=C(c1cc2c(cc1F)OC(c1ccc(F)cc1)(c1ccc(Cl)cc1Cl)O2)N1CCOCC1` (configuration not stated) was run?
**A.** The inhibition was 29.6%.

**Q.** Which inhibition does the source give for `COc1cccc([C@@H](C)NCCCc2ccccc2Cl)c1` here?
**A.** Its inhibition is 32.2%.

**Q.** With `CN(C)C(=O)C(CCN1CCC(O)(c2ccc(Cl)cc2)CC1)(c1ccccc1)c1ccccc1` as the compound, how does the inhibition read?
**A.** Its inhibition is 54.2%.

**Q.** `NC[C@@H]1O[C@H](C23CC4CC(CC(C4)C2)C3)Cc2c1ccc(O)c2O` was tested. Which inhibition did it give?
**A.** Its inhibition is 83.8%.

**Q.** How did the inhibition turn out when `N#Cc1ccc2[nH]cc(CCCCN3CCN(c4ccc5oc(C(N)=O)cc5c4)CC3)c2c1` was run?
**A.** The inhibition was 80.5%.

**Q.** `Cc1cc(NC(=O)Nc2ccc(N(C)C)cc2)c2cc(F)cc(F)c2n1` was tested. Which inhibition did it give?
**A.** Its inhibition is 25.9%.

**Q.** `N=C(N)SCCc1c[nH]cn1` was tested. Which inhibition did it give?
**A.** Its inhibition is 6.59%.

**Q.** `Cc1cc(C)cc(C(=O)N(C)[C@H](Cc2ccc(-c3ccccc3)cc2)C(=O)N[C@@H](Cc2c[nH]c3ccccc23)C(=O)O)c1` was tested. Which inhibition did it give?
**A.** The inhibition was 11.8%.

**Q.** For `Oc1ccc2c3c1O[C@H]1c4[nH]c5c(c4C[C@@]4(O)[C@@H](C2)N(CC2CC2)CC[C@]314)C[C@@]1(O)[C@H]2Cc3ccc(O)c4c3[C@@]1(CCN2CC1CC1)[C@H]5O4`, which inhibition is on record?
**A.** Its inhibition is 14.9%.

**Q.** Which inhibition does the source give for `C[C@@H](NCCc1ccc(O)cc1)[C@@H](O)c1ccc(O)cc1` (relative stereo) here?
**A.** The inhibition was -1.86%.

**Q.** `CCN(CC)CCCCC1CCN(CC(=O)N2c3ccccc3C(=O)Nc3cccnc32)CC1` was tested. Which inhibition did it give?
**A.** The inhibition was -8.29%.

**Q.** For `Cc1c(OCc2cccc(-c3ccc(C(=O)O)cc3)c2)cc2c(c1C)C(=O)C(C1CCCC1)C2` (configuration not stated), which inhibition is on record?
**A.** Its inhibition is 44%.

**Q.** `CCCCCCCCCCCCCCCCOC[C@H](COP(=O)([O-])OCC[N+](C)(C)C)OC(C)=O` was tested. Which inhibition did it give?
**A.** Its inhibition is 16.4%.

**Q.** With `O=C(Nc1ccc(Cl)cc1)Nc1cccc(-c2cccc(N3CCCC3)n2)c1` as the compound, how does the inhibition read?
**A.** The inhibition was 5.64%.

**Q.** `Cc1nc2sccn2c(=O)c1CCN1CCC(=C(c2ccc(F)cc2)c2ccc(F)cc2)CC1` was tested. Which inhibition did it give?
**A.** The inhibition was 82.1%.

**Q.** For `Nc1nc2c(c(N3CCNCC3)n1)CCC1=C2[C@@H]2CCCC[C@@H]2O1`, which inhibition is on record?
**A.** The inhibition was 8.96%.

**Q.** Which inhibition does the source give for `Nc1nc(NCCc2ccc(O)cc2)nc2nc(-c3ccco3)nn12` here?
**A.** Its inhibition is 4.31%.

**Q.** With `CN(C(=O)Cc1ccc(Cl)c(Cl)c1)C(CN1CCCC1)c1cccc(OCC(=O)O)c1` (configuration not stated) as the compound, how does the inhibition read?
**A.** Its inhibition is -5.18%.

**Q.** Which inhibition does the source give for `CCCCN1CCC(COC(=O)c2cc(Cl)c(N)c3c2OCCO3)CC1` here?
**A.** Its inhibition is 24.9%.

**Q.** For `c1ccc(N2CCN(Cc3nc4ccccc4[nH]3)CC2)nc1`, which inhibition is on record?
**A.** Its inhibition is 87.2%.

**Q.** With `COc1cc2c(CCNC(C)=O)c[nH]c2cc1Cl` as the compound, how does the inhibition read?
**A.** The inhibition was -6.09%.

**Q.** `CCCCN(CCCC)C(=O)CN1C[C@@H](c2ccc3c(c2)OCO3)[C@H](C(=O)O)[C@H]1c1ccc(OC)cc1` was tested. Which inhibition did it give?
**A.** The inhibition was 60.5%.

**Q.** Which inhibition does the source give for `O=S1(=O)c2cccc3cccc(c23)N1CCCN1CCN(c2ccc(F)cc2)CC1` here?
**A.** Its inhibition is 108%.

**Q.** With `COc1ccccc1CN[C@H]1C2CCN(CC2)[C@H]1C(c1ccccc1)c1ccccc1` as the compound, how does the inhibition read?
**A.** Its inhibition is 15.3%.

**Q.** `C[C@H](Cc1cc2c(c(C(N)=O)c1)N(CCCO)CC2)NCCOc1ccccc1OCC(F)(F)F` was tested. Which inhibition did it give?
**A.** The inhibition was 63.3%.

**Q.** With `C[C@@H](NCCCc1cccc(C(F)(F)F)c1)c1cccc2ccccc12` as the compound, how does the inhibition read?
**A.** The inhibition was 48%.

**Q.** Which inhibition does the source give for `CCCSc1nc(N[C@@H]2C[C@H]2c2ccc(F)c(F)c2)c2nnn([C@@H]3C[C@H](OCCO)[C@@H](O)[C@H]3O)c2n1` here?
**A.** Its inhibition is 7.98%.

**Q.** For `Cc1nc(-c2ccc(-c3ccc(C(=O)N4CCc5cc6c(cc54)C4(CCN(C)CC4)CO6)cc3)c(C)c2)no1`, which inhibition is on record?
**A.** Its inhibition is 16.6%.

**Q.** `COc1ccc(OC(F)(F)F)cc1CN[C@H]1CCCN[C@H]1c1ccccc1` was tested. Which inhibition did it give?
**A.** The inhibition was -2.15%.

**Q.** How did the inhibition turn out when `Cc1cccc(NC(=O)N[C@@H]2N=C(c3ccccc3)c3ccccc3N(C)C2=O)c1` was run?
**A.** The inhibition was 14.6%.

**Q.** With `CCc1cc(C(C)=O)c(O)cc1OCCCCCC(C)(C)c1nn[nH]n1` as the compound, how does the inhibition read?
**A.** The inhibition was 22.6%.

**Q.** With `CCc1cc2c(c(CC)n1)CCC(=O)N2Cc1ccc(-c2ccccc2-c2nnn[nH]2)cc1` as the compound, how does the inhibition read?
**A.** The inhibition was 70%.

**Q.** With `Cc1ccccc1C(=O)Nc1ccc(C(=O)N2CCCC(O)c3cc(Cl)ccc32)c(C)c1` (configuration not stated) as the compound, how does the inhibition read?
**A.** Its inhibition is 20%.

**Q.** `CCCn1c(=O)c2[nH]c(-c3cnn(Cc4cccc(C(F)(F)F)c4)c3)nc2n(CC)c1=O` was tested. Which inhibition did it give?
**A.** The inhibition was 0.57%.

**Q.** With `Cc1csc2c(N[C@@H](C)CN3CCN(S(=O)(=O)c4ccc(Cl)c(Cl)c4)CC3)ncnc12` as the compound, how does the inhibition read?
**A.** The inhibition was 19.2%.

**Q.** For `Cc1cccc([C@H](C)c2c[nH]cn2)c1C`, which inhibition is on record?
**A.** Its inhibition is 26.9%.
